Some results are limits rather than exact numbers.

For the first test, the target named is JAK-2 enzyme (Homo sapiens, UniProt O60674). Put plainly: JAK2 Inhibition Assay.
JAK-2 enzyme, sequence (O60674 whole entry): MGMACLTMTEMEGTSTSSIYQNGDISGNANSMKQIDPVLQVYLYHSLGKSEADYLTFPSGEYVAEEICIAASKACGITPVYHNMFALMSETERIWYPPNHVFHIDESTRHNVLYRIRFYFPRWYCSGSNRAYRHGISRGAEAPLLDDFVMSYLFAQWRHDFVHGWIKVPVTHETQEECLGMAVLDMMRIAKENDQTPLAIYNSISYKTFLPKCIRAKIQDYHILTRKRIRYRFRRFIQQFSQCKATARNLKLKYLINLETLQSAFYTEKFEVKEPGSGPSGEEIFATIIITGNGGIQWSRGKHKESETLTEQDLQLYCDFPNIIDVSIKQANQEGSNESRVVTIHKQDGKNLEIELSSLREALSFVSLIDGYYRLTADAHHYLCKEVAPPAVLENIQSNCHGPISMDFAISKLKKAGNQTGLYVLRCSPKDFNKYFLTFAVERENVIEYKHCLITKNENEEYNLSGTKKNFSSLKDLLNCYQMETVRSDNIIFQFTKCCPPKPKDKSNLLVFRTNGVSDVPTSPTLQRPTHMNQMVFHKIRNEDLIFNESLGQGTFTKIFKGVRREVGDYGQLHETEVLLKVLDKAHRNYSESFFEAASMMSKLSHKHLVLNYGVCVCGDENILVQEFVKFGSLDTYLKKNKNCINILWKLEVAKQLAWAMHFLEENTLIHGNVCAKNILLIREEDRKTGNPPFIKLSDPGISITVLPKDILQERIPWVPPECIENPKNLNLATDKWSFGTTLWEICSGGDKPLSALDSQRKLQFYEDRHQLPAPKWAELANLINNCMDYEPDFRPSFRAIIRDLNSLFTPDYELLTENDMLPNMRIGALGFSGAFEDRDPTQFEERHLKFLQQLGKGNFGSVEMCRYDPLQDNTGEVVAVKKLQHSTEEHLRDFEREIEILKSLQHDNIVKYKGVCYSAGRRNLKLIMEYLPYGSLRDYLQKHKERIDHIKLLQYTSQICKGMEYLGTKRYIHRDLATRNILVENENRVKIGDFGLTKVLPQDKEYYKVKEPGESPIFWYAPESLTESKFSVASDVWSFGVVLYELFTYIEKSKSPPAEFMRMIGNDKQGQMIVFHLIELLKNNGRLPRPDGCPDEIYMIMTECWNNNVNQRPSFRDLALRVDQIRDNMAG
Conditions: not given
`C[C@H](Nc1cc(-c2cnn3cccnc23)nc(OCC2CCCNC2)n1)c1ccc(F)cc1F` (stereo partly shown) [Compound 202] yielded a Ki below 10 nM.

The compound `COCCOc1nc(N[C@@H](C)c2ccc(F)cc2F)cc(-c2c(N)nn3cccnc23)n1` [Compound 126] displayed an inhibition constant (Ki) below 10 nM.

In turn, `CC(C)[C@H](Nc1cc(-c2c(N)nn3cccnc23)nc(N2CCOCC2)n1)c1ccc(F)cc1F` [Compound 125] displayed a Ki of 10 to 100 nM.

`C[C@H](Nc1cc(-c2cnn3cccnc23)ncn1)c1ccc(F)cc1F` [Compound 117] displayed a Ki below 10 nM.

In the case of `COC(C)(C)CCOc1nc(N[C@@H](C)c2ccc(F)cc2)cc(-c2c(N)nn3cccnc23)n1` [Compound 178], the Ki was below 10 nM.

Turning to `C[C@H](Nc1cc(-c2cnn3cccnc23)nc(OCC2CC2)n1)c1ccc(F)cc1F` [Compound 205], the Ki was below 10 nM.

As to `Nc1nn2cccnc2c1-c1cc(NCc2csc3ccccc23)ncn1` [Compound 31], the Ki is 10 to 100 nM.

`CCC[C@H](Nc1cc(-c2c(N)nn3cccnc23)nc(S(C)(=O)=O)n1)c1ccc(F)cc1` [Compound 110]: the Ki is below 10 nM.

The compound `C[C@H](Nc1cc(-c2c(N)nn3cccnc23)nc(OCCN2CCOCC2)n1)c1ccc(F)cc1` [Compound 109] showed a Ki below 10 nM.

As for `C[C@H](Nc1cc(-c2c(N)nn3cccnc23)nc(OCC2CCCC2)n1)c1ccc(F)cc1` [Compound 176], the Ki was in the range of 10 to 100 nM.

In turn, `C=COCCCCOc1nc(N[C@@H](C)c2ccc(F)cc2)cc(-c2c(N)nn3cccnc23)n1` [Compound 174] registered a Ki of 10 to 100 nM.

Compound `C[C@H](Nc1cc(-c2c(N)nn3cccnc23)nc(N2CCOCC2)n1)c1ccc(F)cc1F` [Compound 106] gave a Ki below 10 nM.

Turning to `CCC#CC(C)Oc1nc(N[C@@H](C)c2ccc(F)cc2)cc(-c2c(N)nn3cccnc23)n1` (stereo partly shown) [Compound 179], the Ki is 10 to 100 nM.

Take `C[C@H](Nc1cc(-c2c(N)nn3cccnc23)ncn1)c1ccc(Cl)cc1F` [Compound 81]: the Ki is below 10 nM.

`CCC[C@H](Nc1cc(-c2c(N)nn3cccnc23)nc(N2CCOCC2)n1)c1ccc(F)cc1` [Compound 103] yielded a Ki of 10 to 100 nM.

In turn, `C[C@H](Nc1cc(-c2c(N)nn3ccc(C(F)(F)F)nc23)ncn1)c1ccc(F)cc1` [Compound 134] showed a Ki of 10 to 100 nM.

`Nc1nn2cccnc2c1-c1cc(NCc2cc(C(F)(F)F)ccc2F)ncn1` [Compound 45] displayed a Ki of 10 to 100 nM.

The compound `C[C@H](Nc1cc(-c2c(N)nn3cccnc23)nc(C2CC2)n1)c1ccc(F)cc1` [Compound 91] returned a Ki below 10 nM.

For the compound `C[C@H](Nc1cc(-c2cnn3cccnc23)nc(N)n1)c1ccc(F)cc1F` [Compound 147], the Ki is below 10 nM.

In turn, `Nc1nn2cccnc2c1-c1cc(N[C@@H](CCO)c2ccccc2)nc(N2CCOCC2)n1` [Compound 102] had a Ki of 10 to 100 nM.

The compound `C[C@H](Nc1cc(-c2cnn3cccnc23)ncn1)c1ccc(Cl)cc1` [Compound 144] gave a Ki below 10 nM.

Regarding `C[C@H](Nc1cc(-c2cnn3cccnc23)nc(OCC2CCCN(C)C2)n1)c1ccc(F)cc1F` (stereo partly shown) [Compound 215], the Ki is below 10 nM.

`CSCCOc1nc(N[C@@H](C)c2ccc(F)cc2F)cc(-c2cnn3cccnc23)n1` [Compound 212] registered a Ki below 10 nM.

Another test concerns the target T1, JAK3 (Homo sapiens, UniProt P52333).
T1 sequence (P52333 1-1124): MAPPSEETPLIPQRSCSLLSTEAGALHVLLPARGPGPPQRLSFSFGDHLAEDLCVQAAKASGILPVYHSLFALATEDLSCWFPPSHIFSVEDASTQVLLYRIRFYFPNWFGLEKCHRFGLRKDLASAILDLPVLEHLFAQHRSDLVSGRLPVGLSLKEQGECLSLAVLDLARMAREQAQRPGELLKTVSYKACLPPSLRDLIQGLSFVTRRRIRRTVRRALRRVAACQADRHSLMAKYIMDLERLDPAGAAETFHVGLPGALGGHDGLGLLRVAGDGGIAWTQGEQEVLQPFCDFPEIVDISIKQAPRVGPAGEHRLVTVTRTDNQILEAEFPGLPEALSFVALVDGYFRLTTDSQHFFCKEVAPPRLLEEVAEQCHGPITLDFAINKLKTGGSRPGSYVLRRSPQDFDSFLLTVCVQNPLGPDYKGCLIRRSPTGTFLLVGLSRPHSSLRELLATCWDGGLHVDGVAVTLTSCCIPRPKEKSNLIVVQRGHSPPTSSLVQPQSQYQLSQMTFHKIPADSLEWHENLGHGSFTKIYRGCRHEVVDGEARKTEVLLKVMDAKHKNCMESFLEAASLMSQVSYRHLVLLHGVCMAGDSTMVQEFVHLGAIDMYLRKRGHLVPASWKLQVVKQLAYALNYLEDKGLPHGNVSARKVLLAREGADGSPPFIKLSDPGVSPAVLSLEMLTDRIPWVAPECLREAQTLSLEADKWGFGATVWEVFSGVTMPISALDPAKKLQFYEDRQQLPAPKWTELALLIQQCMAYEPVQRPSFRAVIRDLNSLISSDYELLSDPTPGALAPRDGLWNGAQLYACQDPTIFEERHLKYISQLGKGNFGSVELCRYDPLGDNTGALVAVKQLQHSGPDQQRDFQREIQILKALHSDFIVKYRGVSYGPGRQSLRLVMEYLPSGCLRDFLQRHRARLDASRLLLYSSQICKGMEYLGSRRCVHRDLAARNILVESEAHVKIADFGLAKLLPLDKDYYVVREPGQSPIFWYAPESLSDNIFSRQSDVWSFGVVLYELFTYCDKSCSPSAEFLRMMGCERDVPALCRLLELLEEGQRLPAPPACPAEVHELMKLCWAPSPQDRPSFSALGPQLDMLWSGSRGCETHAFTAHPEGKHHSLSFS
Put plainly: JAK3 Inhibition Assay. Type of test: biochemical. The settings on record: 1 nM JAK3, 1 μM poly(Glu)4Tyr, 5 μM ATP, 25° C., 33P incorporation.
In turn, `C[C@H](Nc1cc(-c2cnn3cccnc23)nc(OCC2CCCNC2)n1)c1ccc(F)cc1F` (stereo partly shown) [Compound 202] registered a Ki of 10 to 100 nM.

On to `COCCOc1nc(N[C@@H](C)c2ccc(F)cc2F)cc(-c2c(N)nn3cccnc23)n1` [Compound 126], for which the Ki was below 10 nM.

Turning to `CC(C)[C@H](Nc1cc(-c2c(N)nn3cccnc23)nc(N2CCOCC2)n1)c1ccc(F)cc1F` [Compound 125], the Ki was in the range of 100 to 500 nM.

With `C[C@H](Nc1cc(-c2cnn3cccnc23)ncn1)c1ccc(F)cc1F` [Compound 117], the inhibition constant Ki lay in the range of 10 to 100 nM.

Compound `COC(C)(C)CCOc1nc(N[C@@H](C)c2ccc(F)cc2)cc(-c2c(N)nn3cccnc23)n1` [Compound 178] gave a Ki of 10 to 100 nM.

The compound `C[C@H](Nc1cc(-c2cnn3cccnc23)nc(OCC2CC2)n1)c1ccc(F)cc1F` [Compound 205] showed a Ki of 100 to 500 nM.

In turn, `Nc1nn2cccnc2c1-c1cc(NCc2csc3ccccc23)ncn1` [Compound 31] gave a Ki of 100 to 500 nM.

In turn, `CCC[C@H](Nc1cc(-c2c(N)nn3cccnc23)nc(S(C)(=O)=O)n1)c1ccc(F)cc1` [Compound 110] registered a Ki of 10 to 100 nM.

`C[C@H](Nc1cc(-c2c(N)nn3cccnc23)nc(OCCN2CCOCC2)n1)c1ccc(F)cc1` [Compound 109]: the Ki lay within 10 to 100 nM.

Turning to `C[C@H](Nc1cc(-c2c(N)nn3cccnc23)nc(OCC2CCCC2)n1)c1ccc(F)cc1` [Compound 176], the Ki was in the range of 100 to 500 nM.

The compound `C=COCCCCOc1nc(N[C@@H](C)c2ccc(F)cc2)cc(-c2c(N)nn3cccnc23)n1` [Compound 174] gave an inhibition constant Ki of 100 to 500 nM.

In turn, `C[C@H](Nc1cc(-c2c(N)nn3cccnc23)nc(N2CCOCC2)n1)c1ccc(F)cc1F` [Compound 106] registered a Ki of 10 to 100 nM.

Turning to `CCC#CC(C)Oc1nc(N[C@@H](C)c2ccc(F)cc2)cc(-c2c(N)nn3cccnc23)n1` (stereo partly shown) [Compound 179], the Ki lay within 500 to 5000 nM.

For the compound `C[C@H](Nc1cc(-c2c(N)nn3cccnc23)ncn1)c1ccc(Cl)cc1F` [Compound 81], the Ki was in the range of 10 to 100 nM.

The compound `CCC[C@H](Nc1cc(-c2c(N)nn3cccnc23)nc(N2CCOCC2)n1)c1ccc(F)cc1` [Compound 103] had an inhibition constant Ki of 100 to 500 nM.

For `C[C@H](Nc1cc(-c2c(N)nn3ccc(C(F)(F)F)nc23)ncn1)c1ccc(F)cc1` [Compound 134], the inhibition constant Ki lay within 10 to 100 nM.

In turn, `Nc1nn2cccnc2c1-c1cc(NCc2cc(C(F)(F)F)ccc2F)ncn1` [Compound 45] had a Ki of 100 to 500 nM.

Compound `C[C@H](Nc1cc(-c2c(N)nn3cccnc23)nc(C2CC2)n1)c1ccc(F)cc1` [Compound 91] came in with a Ki of 10 to 100 nM.

As for `C[C@H](Nc1cc(-c2cnn3cccnc23)nc(N)n1)c1ccc(F)cc1F` [Compound 147], the Ki lay in the range of 10 to 100 nM.

On to `Nc1nn2cccnc2c1-c1cc(N[C@@H](CCO)c2ccccc2)nc(N2CCOCC2)n1` [Compound 102], for which the inhibitory constant (Ki) lay in the range of 100 to 500 nM.

`C[C@H](Nc1cc(-c2cnn3cccnc23)ncn1)c1ccc(Cl)cc1` [Compound 144] returned a Ki of 100 to 500 nM.

In turn, `C[C@H](Nc1cc(-c2cnn3cccnc23)nc(OCC2CCCN(C)C2)n1)c1ccc(F)cc1F` (stereo partly shown) [Compound 215] registered a Ki of 10 to 100 nM.

Compound `CSCCOc1nc(N[C@@H](C)c2ccc(F)cc2F)cc(-c2cnn3cccnc23)n1` [Compound 212] displayed a Ki of 10 to 100 nM.
